For this assay, the system named is spontaneous canine pemphigus foliaceus. Description: spontaneous canine pemphigus foliaceus. To be noted: dog, in vivo.

Regarding `CC(C)(C=C(C#N)C(=O)N1CCC[C@@H](n2nc(-c3ccc(Oc4ccccc4)cc3F)c3c(N)ncnc32)C1)N1CCN(C2COC2)CC1` [rilzabrutinib, (R)-2-[3-[4-amino-3-(2-fluoro-4-phenoxy-phenyl)pyrazolo[3,4-d]pyrimidin-1-yl]piperidine-1-carbonyl]-4-methyl-4-[4-(oxetan-3-yl)piperazin-1-yl]pent-2-enenitrile], the anti-inflammatory effects result was “rapid and significant anti-inflammatory effects”.
